From PubChem BioAssay AID652153 (Molecular Libraries Program, Specialized Chemistry Center, …, 2013)
Activity calls are given as the source filed them. How the calls were made is not given here.

Each molecule was assayed against Rac GTPase-activating protein 1 (Homo sapiens) (UniProt Q9H0H5) (assay: MgcRacGAP inhibitors, selectivity among RhoGAPs, dose response, selectivity assay, biochemical (AID 652153)). Conditions: MgcRacGAP GAP activity on Rac1F28L, Biomol green phosphate.
Sequence of Rac GTPase-activating protein 1 (Homo sapiens) (Q9H0H5 whole entry, looked up): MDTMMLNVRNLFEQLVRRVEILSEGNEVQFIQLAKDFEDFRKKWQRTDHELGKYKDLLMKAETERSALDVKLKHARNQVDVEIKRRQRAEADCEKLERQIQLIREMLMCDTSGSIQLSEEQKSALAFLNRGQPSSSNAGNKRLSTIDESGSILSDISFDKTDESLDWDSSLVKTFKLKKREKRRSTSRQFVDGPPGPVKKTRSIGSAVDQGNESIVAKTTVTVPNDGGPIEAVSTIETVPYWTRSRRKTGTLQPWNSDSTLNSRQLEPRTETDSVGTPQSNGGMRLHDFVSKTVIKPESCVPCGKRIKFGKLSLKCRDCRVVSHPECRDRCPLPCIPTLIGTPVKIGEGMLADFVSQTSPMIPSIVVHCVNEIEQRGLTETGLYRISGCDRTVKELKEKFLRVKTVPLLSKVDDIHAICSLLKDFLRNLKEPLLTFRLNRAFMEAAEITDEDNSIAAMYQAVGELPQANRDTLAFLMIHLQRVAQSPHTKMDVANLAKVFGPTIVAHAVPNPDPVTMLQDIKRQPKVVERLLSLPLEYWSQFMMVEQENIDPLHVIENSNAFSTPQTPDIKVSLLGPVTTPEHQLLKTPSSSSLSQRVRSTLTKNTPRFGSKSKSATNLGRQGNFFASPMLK
`COc1ccc(NC2CCCN(C(=O)C3(C)CCCCC3)C2)cc1` (stereo unspecified) was tested, and the IC50 was “inactive”. With `O=C1C(=Cc2ccco2)CCC1=Cc1ccco1` the IC50 was “inactive”. `CN(C)c1ccc(C=c2c3cc(O)ccc3n3c2cc(-c2ccccc2)[n+]3C)cc1` was tested, and the IC50 was “inactive”. `O=c1c2ccccc2sn1-c1cccc(Cl)c1` gave an IC50 of 690 nM. With `COc1ccc(-n2sc3ccc(F)cc3c2=O)cc1` the IC50 was “inactive”. In the case of `Cc1cc(N)c2cc(NC(=O)/C=C/c3ccccc3Cl)ccc2n1`, the IC50 is reported as “inactive”. `C[n+]1c(-c2ccc(C=NNC(=O)c3ccc(C(=O)NN=Cc4ccc(-c5cn6ccccc6[n+]5C)cc4)cc3)cc2)cn2ccccc21` was tested, and the IC50 was “inactive”. For `Cc1ccc(C)c(-n2sc3ccc(F)cc3c2=O)c1`, the IC50 was “inactive”. With `Cc1c(Cl)sn(-c2ccc(Cl)cc2)c1=O` the IC50 was “inactive”. In the case of `Cc1ccc(-n2sc3cc(F)ccc3c2=O)c(C)c1`, the IC50 is reported as “inactive”. In the case of `O=C1C(Cl)=C(NC(=O)c2ccccc2)C(=O)C(Cl)=C1NC(=O)c1ccccc1`, the IC50 is reported as “inactive”. `COc1ccc(Nc2ccc3ccccc3c2)cc1` was tested, and the IC50 was “inactive”. For `O=c1c2ccccc2sn1-c1ccc(F)cc1`, the IC50 was “inactive”. `CN(C)c1ncc(C2=C(Cl)C(=O)C(N3CCCC3)=C(Cl)C2=O)s1` was tested, and the IC50 was “inactive”. For `O=c1c2ccc(F)cc2sn1-c1ccccc1`, the IC50 was “inactive”. `O=c1c2sc3ccccc3c2[nH]c(=S)n1CCN1CCOCC1` was tested, and the IC50 was “inactive”. With `Cc1cc(C)c2c(=N)c3ccccc3n(CCCCCCCCn3c4ccccc4c(=N)c4c(C)cc(C)nc43)c2n1` the IC50 was “inactive”. `CSc1nc(N)c(N=Nc2ccc([As](=O)(O)O)cc2)c(=O)[nH]1` was tested, and the IC50 was “inactive”. With `O=C(Nc1ccccc1Cl)/C(Cl)=C(\Cl)S(=O)c1ccccc1` (stereo unspecified) the IC50 was “inactive”. For `O=C1C(SCCO)=C(SCCO)C(=O)c2ccccc21`, the IC50 was “inactive”. With `O=c1c2ccccc2sn1-c1ccccc1F` the IC50 was “inactive”. With `O=C1C=CC(=O)c2c(O)c(N3CCN(CCO)CC3)c(Cl)c(O)c21` the IC50 was “inactive”. Molecule `O=c1c2cc(F)ccc2sn1-c1ccccc1Cl` has an IC50 of 920 nM. In the case of `CN(C)c1nc(=NCc2cccs2)ss1`, the IC50 is reported as “inactive”. For `CCN(CC)c1ccc(C(=C2C=CC(=[N+](CC)CC)C=C2)c2ccc(N(CC)CC)cc2)cc1`, the IC50 was “inactive”. `Nc1ccc(OCc2ccco2)cc1` was tested, and the IC50 was “inactive”. With `O=c1c2ccccc2sn1-c1ccc(Cl)cc1` the IC50 was “inactive”. In the case of `O=C1C=CC(=O)c2c(O)c(N3CCN(CCOCCO)CC3)c(Br)c(O)c21`, the IC50 is reported as “inactive”. For `Nc1n[nH]c(=S)n1/N=C1/C(=O)Nc2ccccc21`, the IC50 was “inactive”. For `COc1ccc(/C=N/Nc2cc(C)nc3ccc(OC)cc23)c(OC)c1`, the IC50 was “inactive”. `CN(C)c1ccc(/C=C/c2cc[n+](C)c3ccccc23)cc1` was tested, and the IC50 was “inactive”. In the case of `CC1OC(CC(=O)O)CC2=C1C(=O)c1c(O)cccc1C2=O` (stereo unspecified), the IC50 is reported as “inactive”. With `O=C1C=CC(=O)N1c1ccccc1N1C(=O)C=CC1=O` the IC50 was “inactive”. In the case of `O=C(O)C1CSC(c2ccco2)N1` (stereo unspecified), the IC50 is reported as “inactive”. For `CCN1CCN(Cc2ccc(NC(=O)c3ccc(C)c(/C=C/c4cnc(Nc5cc(N6CCNCC6)nc(C)n5)cn4)c3)cc2C(F)(F)F)CC1`, the IC50 was “inactive”. For `COC(=O)c1cccc(-n2sc3ccccc3c2=O)c1`, the IC50 was “inactive”. With `COc1ccc(-n2sc3ccccc3c2=O)cc1` the IC50 was “inactive”. In the case of `O=c1c2ccccc2sn1-c1ccc(Cl)cc1Cl`, the IC50 is reported as “inactive”. With `O=c1c2cc(F)ccc2sn1-c1ccccc1` the IC50 was “inactive”. Work on `CC(=O)Nc1ccc2sn(-c3ccccc3)c(=O)c2c1` yielded an IC50 of 643 nM. In the case of `O=C(O)c1cc(N2C(=O)C=CC2=O)cc(N2C(=O)C=CC2=O)c1`, the IC50 is reported as “inactive”. `CC1=NNC(=O)C1Br` (stereo unspecified) was tested, and the IC50 was “inactive”. Work on `Cn1ccc(=Nc2ccc(NC(=O)c3ccc(N=c4ccn(C)c5ccc([N+](=O)[O-])cc45)cc3)cc2)cc1` yielded an IC50 of 939 nM. `O=C(O)c1cc(N2N=C(C(F)(F)F)/C(=C/C=C/c3ccco3)C2=O)ccc1Cl` was tested, and the IC50 was “inactive”. With `O=C(O)c1cccc(-n2sc3ccccc3c2=O)c1` the IC50 was “inactive”. For `O=C1NC(=S)N(c2ccccc2)C(=O)/C1=C/c1ccco1`, the IC50 was “inactive”.
